Measurements: the NIST ThermoML archive (doi:10.1016/j.jct.2011.01.014)
Numbers after ± are expanded uncertainties.

Assay: xn = mol fraction of the nth substance listed
Conditions: 101 kPa, Liquid; for mass density: Vibrating tube method; for speed of sound: sound velocity cell

## CC(=O)[O-].[NH3+]CCO [2-hydroxyethylammonium acetate] + CCO
288.15 K, x1 = 0.0497
  mass density: 830.092 ± 0.7 kg/m3
  speed of sound: 1219.7 ± 1.4 m/s
288.15 K, x1 = 0.101
  mass density: 862.917 ± 0.59 kg/m3
  speed of sound: 1257.7 ± 1.4 m/s
288.15 K, x1 = 0.201
  mass density: 917.271 ± 0.55 kg/m3
  speed of sound: 1327 ± 1.6 m/s
288.15 K, x1 = 0.3009
  mass density: 964.134 ± 0.53 kg/m3
  speed of sound: 1410 ± 1.7 m/s
288.15 K, x1 = 0.4057
  mass density: 1005.85 ± 0.59 kg/m3
  speed of sound: 1470.2 ± 1.9 m/s
288.15 K, x1 = 0.4946
  mass density: 1036.29 ± 0.73 kg/m3
  speed of sound: 1529.9 ± 2.1 m/s
288.15 K, x1 = 0.603
  mass density: 1068.79 ± 0.99 kg/m3
  speed of sound: 1601.6 ± 2.3 m/s
288.15 K, x1 = 0.6765
  mass density: 1088.47 ± 1.2 kg/m3
  speed of sound: 1646.3 ± 2.5 m/s
288.15 K, x1 = 0.7918
  mass density: 1116.27 ± 1.6 kg/m3
  speed of sound: 1707.9 ± 2.7 m/s
288.15 K, x1 = 0.8825
  mass density: 1135.66 ± 2 kg/m3
  speed of sound: 1756.7 ± 2.9 m/s
288.15 K, x1 = 0.9539
  mass density: 1148.76 ± 2.3 kg/m3
  speed of sound: 1806.7 ± 3.1 m/s
288.15 K, x1 = 1
  mass density: 1154.7 ± 2.6 kg/m3
  speed of sound: 1817.2 ± 3.2 m/s
290.65 K, x1 = 0.0497
  mass density: 828.024 ± 0.7 kg/m3
  speed of sound: 1211.3 ± 1.4 m/s
290.65 K, x1 = 0.101
  mass density: 860.918 ± 0.59 kg/m3
  speed of sound: 1249.6 ± 1.4 m/s
290.65 K, x1 = 0.201
  mass density: 915.381 ± 0.55 kg/m3
  speed of sound: 1319.3 ± 1.6 m/s
290.65 K, x1 = 0.3009
  mass density: 962.336 ± 0.53 kg/m3
  speed of sound: 1402.9 ± 1.7 m/s
290.65 K, x1 = 0.4057
  mass density: 1004.14 ± 0.59 kg/m3
  speed of sound: 1463.2 ± 1.9 m/s
290.65 K, x1 = 0.4946
  mass density: 1034.64 ± 0.73 kg/m3
  speed of sound: 1523 ± 2.1 m/s
290.65 K, x1 = 0.603
  mass density: 1067.23 ± 0.99 kg/m3
  speed of sound: 1594.9 ± 2.3 m/s
290.65 K, x1 = 0.6765
  mass density: 1086.9 ± 1.2 kg/m3
  speed of sound: 1639.6 ± 2.5 m/s
290.65 K, x1 = 0.7918
  mass density: 1114.76 ± 1.6 kg/m3
  speed of sound: 1700.5 ± 2.7 m/s
290.65 K, x1 = 0.8825
  mass density: 1134.02 ± 2 kg/m3
  speed of sound: 1749.4 ± 2.9 m/s
290.65 K, x1 = 0.9539
  mass density: 1147.23 ± 2.3 kg/m3
  speed of sound: 1796 ± 3.1 m/s
290.65 K, x1 = 1
  mass density: 1153.28 ± 2.6 kg/m3
  speed of sound: 1810 ± 3.2 m/s
293.15 K, x1 = 0.0497
  mass density: 825.955 ± 0.7 kg/m3
  speed of sound: 1203 ± 1.4 m/s
293.15 K, x1 = 0.101
  mass density: 858.918 ± 0.59 kg/m3
  speed of sound: 1241.5 ± 1.4 m/s
293.15 K, x1 = 0.201
  mass density: 913.49 ± 0.55 kg/m3
  speed of sound: 1311.7 ± 1.6 m/s
293.15 K, x1 = 0.3009
  mass density: 960.535 ± 0.53 kg/m3
  speed of sound: 1395.7 ± 1.7 m/s
293.15 K, x1 = 0.4057
  mass density: 1002.43 ± 0.59 kg/m3
  speed of sound: 1456.2 ± 1.9 m/s
293.15 K, x1 = 0.4946
  mass density: 1033 ± 0.73 kg/m3
  speed of sound: 1516.3 ± 2.1 m/s
293.15 K, x1 = 0.603
  mass density: 1065.67 ± 0.99 kg/m3
  speed of sound: 1588.4 ± 2.3 m/s
293.15 K, x1 = 0.6765
  mass density: 1085.33 ± 1.2 kg/m3
  speed of sound: 1633.2 ± 2.4 m/s
293.15 K, x1 = 0.7918
  mass density: 1113.26 ± 1.6 kg/m3
  speed of sound: 1693.3 ± 2.7 m/s
293.15 K, x1 = 0.8825
  mass density: 1132.52 ± 2 kg/m3
  speed of sound: 1741.7 ± 2.9 m/s
293.15 K, x1 = 0.9539
  mass density: 1145.67 ± 2.3 kg/m3
  speed of sound: 1786.6 ± 3.1 m/s
293.15 K, x1 = 1
  mass density: 1151.87 ± 2.5 kg/m3
  speed of sound: 1803.2 ± 3.2 m/s
295.65 K, x1 = 0.0497
  mass density: 823.881 ± 0.7 kg/m3
  speed of sound: 1194.7 ± 1.4 m/s
295.65 K, x1 = 0.101
  mass density: 856.913 ± 0.59 kg/m3
  speed of sound: 1233.5 ± 1.4 m/s
295.65 K, x1 = 0.201
  mass density: 911.596 ± 0.55 kg/m3
  speed of sound: 1304 ± 1.6 m/s
295.65 K, x1 = 0.3009
  mass density: 958.737 ± 0.53 kg/m3
  speed of sound: 1388.5 ± 1.7 m/s
295.65 K, x1 = 0.4057
  mass density: 1000.73 ± 0.59 kg/m3
  speed of sound: 1449.2 ± 1.9 m/s
295.65 K, x1 = 0.4946
  mass density: 1031.36 ± 0.72 kg/m3
  speed of sound: 1509.6 ± 2.1 m/s
295.65 K, x1 = 0.603
  mass density: 1064.1 ± 0.98 kg/m3
295.65 K, x1 = 0.6765
  mass density: 1083.81 ± 1.2 kg/m3
295.65 K, x1 = 0.7918
  mass density: 1111.76 ± 1.6 kg/m3
295.65 K, x1 = 0.8825
  mass density: 1131.06 ± 2 kg/m3
295.65 K, x1 = 0.9539
  mass density: 1144.09 ± 2.3 kg/m3
295.65 K, x1 = 1
  mass density: 1150.45 ± 2.5 kg/m3
